Measurements reported in patent US11191809B2, “Composition in powder form comprising iron-milk protein complexes and probiotic bacteria” (NESTEC S.A., priority 2016, dated 2021).

Tested on: probiotic bacteria
Assay: Viability of probiotic bacteria with iron sources (general finding of the inventors)
Format: cell-based
Conditions: general statement; reconstitution of powder with a liquid

O.O.O.O.O.O.O.O=S(=O)([O-])[O-].[Fe+2] [ferrous sulphate heptahydrate]
loss of viability of probiotic bacteria: significant loss of viability
